Results on one molecule are retold here after ChEMBL document CHEMBL6087472, “Development and Discovery of a Selective Degrader of Casein Kinases 1 δ/ε” (J Med Chem, 2025).

What all share (type): cell-based
Assay [1] deals with T1, von Hippel-Lindau disease tumor suppressor/Casein kinase I isoform delta (Homo sapiens, UniProt P48730+P40337). Put plainly: PROTAC activity at VHL/CK1 delta in HEK293 cells assessed as induction of degradation of CK1 delta at 3 uM measured after 6 hrs by Western blot analysis relative to control.
Assay [2] concerns the target von Hippel-Lindau disease tumor suppressor/Casein kinase I isoform epsilon (Homo sapiens) (UniProt P49674+P40337). Put plainly: PROTAC activity at VHL/CK1 epsilon in HEK293 cells assessed as induction of degradation of CK1 epsilon by measuring maximum efficacy at 5 to 10 uM measured after 6 hrs by Western blot analysis relative to control. The following applies: dose 5-10 µM. For orientation: Immunoblotting shows a protein as a band on a membrane.

Assay [3] addresses von Hippel-Lindau disease tumor suppressor/Casein kinase I isoform alpha (Homo sapiens) (UniProt P48729+P40337). In words: PROTAC activity at VHL/Hibit-fused CK1 alpha in human MV4-11 cells assessed as degradation of CK1-alpha incubated for 6 hrs by Nano-Glo HiBiT assay relative to control.
The target in assay [4] is T1, von Hippel-Lindau disease tumor suppressor/Casein kinase I isoform delta. Put plainly: PROTAC activity at VHL/CK1 delta in human U87 cells assessed as induction of degradation of CK1 delta by measuring maximum efficacy at 1 uM measured after 6 hrs relative to control.

T1 sequence (P40337 whole entry, looked up, canonical isoform): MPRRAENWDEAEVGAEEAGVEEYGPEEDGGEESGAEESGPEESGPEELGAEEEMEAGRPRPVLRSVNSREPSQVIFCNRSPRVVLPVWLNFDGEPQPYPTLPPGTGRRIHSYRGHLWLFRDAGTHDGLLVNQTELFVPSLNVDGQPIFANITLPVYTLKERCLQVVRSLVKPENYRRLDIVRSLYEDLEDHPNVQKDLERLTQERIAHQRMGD
T1 sequence (P48730 whole entry, looked up, canonical isoform): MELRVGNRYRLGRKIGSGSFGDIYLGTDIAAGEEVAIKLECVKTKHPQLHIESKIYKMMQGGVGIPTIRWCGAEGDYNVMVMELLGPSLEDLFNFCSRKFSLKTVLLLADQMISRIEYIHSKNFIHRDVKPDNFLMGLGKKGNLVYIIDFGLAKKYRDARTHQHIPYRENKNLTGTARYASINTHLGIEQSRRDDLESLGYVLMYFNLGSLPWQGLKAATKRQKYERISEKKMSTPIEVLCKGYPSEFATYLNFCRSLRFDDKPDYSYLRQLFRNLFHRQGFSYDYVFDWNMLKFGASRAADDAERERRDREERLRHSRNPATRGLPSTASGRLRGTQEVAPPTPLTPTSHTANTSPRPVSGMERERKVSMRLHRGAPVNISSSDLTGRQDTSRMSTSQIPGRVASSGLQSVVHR
von Hippel-Lindau disease tumor suppressor/Casein kinase I isoform alpha (Homo sapiens), sequence (P40337 whole entry, looked up, the tested form may be a part, canonical isoform): as the sequence (P40337 whole entry, looked up, canonical isoform) above
von Hippel-Lindau disease tumor suppressor/Casein kinase I isoform alpha (Homo sapiens), sequence (P48729 whole entry, looked up, the tested form may be a part, canonical isoform): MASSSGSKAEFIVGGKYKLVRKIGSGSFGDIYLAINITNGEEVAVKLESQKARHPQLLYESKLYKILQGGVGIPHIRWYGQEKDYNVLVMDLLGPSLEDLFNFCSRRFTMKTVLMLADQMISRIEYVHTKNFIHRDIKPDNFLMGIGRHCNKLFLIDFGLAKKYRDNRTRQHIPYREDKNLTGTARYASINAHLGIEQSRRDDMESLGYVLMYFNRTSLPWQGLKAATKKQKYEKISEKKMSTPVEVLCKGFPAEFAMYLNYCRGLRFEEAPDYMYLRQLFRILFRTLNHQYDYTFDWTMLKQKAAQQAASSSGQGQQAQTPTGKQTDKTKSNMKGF
von Hippel-Lindau disease tumor suppressor/Casein kinase I isoform epsilon (Homo sapiens), sequence (P40337 whole entry, looked up, canonical isoform): as the sequence (P40337 whole entry, looked up, canonical isoform) above
von Hippel-Lindau disease tumor suppressor/Casein kinase I isoform epsilon (Homo sapiens), sequence (P49674 whole entry, looked up, canonical isoform): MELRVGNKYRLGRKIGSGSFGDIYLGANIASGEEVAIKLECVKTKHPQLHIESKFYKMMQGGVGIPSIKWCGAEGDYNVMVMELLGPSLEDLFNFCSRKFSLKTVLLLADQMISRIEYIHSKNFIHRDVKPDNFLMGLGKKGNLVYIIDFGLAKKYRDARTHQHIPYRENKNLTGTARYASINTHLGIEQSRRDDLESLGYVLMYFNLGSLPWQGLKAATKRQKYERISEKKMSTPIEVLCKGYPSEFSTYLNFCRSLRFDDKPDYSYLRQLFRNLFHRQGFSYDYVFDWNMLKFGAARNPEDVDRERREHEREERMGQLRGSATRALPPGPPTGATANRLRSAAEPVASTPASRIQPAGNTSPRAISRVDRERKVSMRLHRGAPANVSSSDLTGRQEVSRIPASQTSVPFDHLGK

Broadly, the Emax is the size of the effect at its maximum, as opposed to the concentration needed. Take `Cc1ncsc1-c1ccc(CNC(=O)[C@H]2C[C@H](O)CN2C(=O)[C@H](NC(=O)CCCCCCC(=O)N2CCC(F)(Cn3cnc(-c4ccc(F)cn4)c3-c3ccnc4[nH]ccc34)CC2)C(C)(C)C)cc1`: the Activity in assay [1] was found to be 100%. In addition, the Emax was above 50% in assay [2], 35.1% in assay [3] and above 50% in assay [4].
